The values below come from US20080051413A1, “Nitrophenylpiperazine derivative of xanthine which relaxes tracheal airway and increases respiratory performance” (KAOHSIUNG MEDICAL UNIVERSITY, priority 2006, published 2008).

“And” between values parts separate entries of the source, which are not always exact repeats. Equal values may be shown once.

Series [1] addresses T1, PDE3 purified from human platelets (Homo sapiens, UniProt Q14432).
T1 construct: PDE3 and PDE5 purified from human platelets; from tissue; host or cells: human platelets
The series can be described thus: Phosphodiesterase activity, PDE3. The note with it: 10 _M compound, n = 3. The class given is biochemical.
Method: PDE3 and PDE5 purified from human platelets and PDE4 purified from human U-937 pronocytic cells were used. Test compound (10 _M) or vehicle was incubated with 0.2 _g of enzyme and 1 _M cAMP containing 0.01 _M [^3H]cAMP in Tris buffer, pH 7.5, for 20 min at 25_. The reaction was terminated by boiling for 2 min, and the resulting cAMP was converted to adenosine by the addition of 10 mg/ml snake venom nucleotidase, which is followed by a further incubation at 37_for 10 min. Unhydrolyzed cAMP was bound to AG1-X2 resin, and the remaining [^3H]adenosine in the aqueous phase was quantitated by scintillation counting.

For the next series, the system named is respiratory performance. The series can be described thus: Pulmonary function after i.v. injection (RL, Cdyn, tidal volume). The class given is in vivo. The note with it: 1 mg/kg i.v., guinea pig, n = 3. The procedure: (§1) Animals: Male Dunkin Harley guinea pigs (350-450 g) were provide by the National Laboratory Animal Breeding and Research Center (Taipei, Taiwan) and housed under conditions of constant temperature and controlled illumination. Food and water were available and libitum. The study was approved by the Animal Care and Use Committee of the Kaohsiung Medical University.
(§2) Pulmonary Function: Guinea pegs (350-450 g) were anesthetized with pentobarbital (40 mg/kg i.p.) and maintained with further i.v. doses of 2 to 5 mg/kg when required according to methods previously described (Wu B N, Lin R J, Lo Y C, Shen K P, Wang C C, Lin Y T, and Chen I J (2004) KMUP-1, a xanthine derivative, induces relaxation of guinea-pig isolated trachea: the role of the epithelium, cyclic nucleotides and K^+ channels, Br J Pharmacol 142:1105-1114). The animal was tethered in a supine position, and the trachea was cannulated below the larynx with a short tracheal cannula via a tracheotomy. Tracheal pressure was measured by a catheter connected to the side arm of the tracheal cannula. The carotid artery and jugular vein were cannulated to monitor blood pressure and heart rate and for drug administration, respectively. Throughout the experiment, the body temperature of the guinea pig was maintained at 37_. Measurements of pulmonary cardiac function were carried out as previously described (Hsu T H, Lai Y L, and Kou Y R (1998) Acetylcholine and tachykinin receptor antagonists attenuate wood smoke-induced bronchoconstriction in Guinea pigs. Eur J Pharmacol 360:175-183). Total lung resistance (RL) and dynamic lung compliance (Cdyn) were measured on a breath-by-breath basis using a computer equipped with an A/D interface (DAS 1600; Buxco Electronics, Inc., Wilmington, N.C.) and software (version 1.5.7; Buxco Electronics, Inc.). Results obtained from the computer analysis were checked for accuracy by comparison with those calculated manually.
Animals were allowed to stabilize for 10 min following surgical manipulations before the test agent was administered. Intratracheal instillation was performed using a catheter placed through the tracheal tube into the bronchial system. The catheter connected to a 1-ml syringe was inserted into the trachea cannula extending 1 cm beyond the tip of the cannula for instillation of drug or vehicle. The instillation was followed by rapid intratracheal injection of 0.5 ml of air to facilitate deposition of drug or vehicle into the lungs as in the modified methods of Chung et al. (2001)(Chung W H, Bennett B M, Racz W J, Brien J F, and […] Fischer 344 rats during aminodarone-induced pulmonary fibrosis. Am J Physiol 281:L1180-L1188). The animals were pretreated intratracheally with KMUP-3 (0.5, 1.0, and 2.0 mg/kg/150 _l of saline) or an equivalent volume (150 _l) of vehicle 15 min before TNF-_(0.01 mg/kg/300 _l saline) was instilled to induce acute bronchoconstriction. In another experiments, KMUP-3 or KMUP-1 (1.0 mg/kg i.v.) were used to compare the effects on respiratory performance, indicated by changes of tidal volume, total RL, and Cdyn.

The test system of series [2] is TNF-_-induced bronchoconstriction. The series can be described thus: TNF-_-induced bronchoconstriction, intratracheal instillation. Type of series: in vivo, guinea pig. The protocol: as §1, §2
Animals were allowed to stabilize for 10 min following surgical manipulations before the test agent was administered. […]

Series [3] has as its system guinea pig tracheal smooth muscle cells. The series can be described thus: Measurement of cAMP in TSMCs. The class given is cell-based. The procedure: Cell Culture of Tracheal Smooth Muscle: Guinea pigs (350-450 g) were injected i.p. with a lethal dose of pentobarbital. The tracheas were excised and cut longitudinally through the cartilage. Using a dissecting microscope, TSM strips were dissected from the surrounding parentchyma. The epithelium was removed from the luminal surface, and bands of TSM were gently separated from the underlying connective tissue. Then TSM strips were chopped into small sections (1 mm^3) and incubated in Hanks' balanced salt solution (138 mM NaCl, 4 mM NaHCO3, 5 mM KCl, 0.3 mM KH2PO4, 0.3 mM Na2HPO4, and 1.0 mM glucose) with 0.05% elastase type IV and 0.2% collagenase type IV (Invitrogen, Carlsbad, Calif.) for 30 min at 37_ with gentle shaking. The solution of dissociated smooth muscle cells was centrifuged (6 min at 500 g), and the pellet was resuspended in 1:1 Dulbecco's modified Eagle's medium/Ham's F-12 medium supplemented with 10% fetal bovine serum, 0.244% NaHCO3, and 1% penicillin/streptomycin. Cells were cultured in 25-cm^2 flasks at 37_ in humidified air containing 5% CO2. Confluent cells were detached with 0.25% trypsin-0.02% EDTA at 37_and then subcultured to establish secondary cultures. Cultures were maintained for no more than four passages. They were identified as smooth muscle cells by the typical hill-and-valley appearance, and cellular homogeneity was further confirmed by the presence of smooth muscle specific _-myosin and _-actin immunoreactivity. Indirect immunofluorescence staining for a variety of antigens was carried out by first plating the cells on chamber slides, fixing the cells in 3.7% formaldehyde-phosphate-buffered saline for 10 min, and permeabilizing the cells with phosphate-buffered saline and 0.1% Triton X-100. Cells were then stained with either a mouse monoclonal antibody directed against the amino-terminal 10 amino acids of _-smooth muscle actin or _-myosin (Roche Diagnostics, Indianapolis, Ind.). All cells were stained with fluorescein-labeled goat anti-mouse IgG antibody (Roche Diagnostics).
Measurement of cAMP and cGMP: Intracellular concentrations of cAMP and cGMP in TSMCs were measured as in our previous reports (Wu B N, Lin R J, Lin C Y, Shen K P, Chiang L C, and Chen I J (2001) A xanthine-based KMUP-1 with cyclic GMP enhancing and K^+ channels opening activities in rat aortic smooth muscle. Br J Pharmacol 134:265-274; Lin R J, Wu B N, Lo Y C, Shen K P, Lin Y T, Huang C H, and Chen I J (2002) KMUP-1 relaxes rabbit corpus cavernosum smooth muscle in vitro and in vivo: involvement of cyclic GMP and K(+) channels, Br J Pharmacol 135:1159-1166). In brief, cells were finally grown in 24-well plates (10^5 cells/well). At confluence, monolayer cells were washed with phosphate-buffered saline and then incubated with KMUP-3 (0.01-100 _M) for 20 min at 37_ in medium. […] The reaction was terminated by replacement of medium with 1 ml of ice-cold 1 N hydrochloric acid. Cells suspensions were sonicated and then centrifuged at 2500 g for 15 min at 4_. Then, the supernatants were lyophilized and the cAMP and cGMP of each sample were determined using commercially available radioimmunoassay kits (GE Healthcare, Little Chalfont, Buckinghamshire, UK).

Setting [4] is: 0.5, 1.0, 2.0 mg/kg intratracheal, 15 min prior to TNF-_ (0.01 mg/kg).

T1 sequence (Q14432 whole entry): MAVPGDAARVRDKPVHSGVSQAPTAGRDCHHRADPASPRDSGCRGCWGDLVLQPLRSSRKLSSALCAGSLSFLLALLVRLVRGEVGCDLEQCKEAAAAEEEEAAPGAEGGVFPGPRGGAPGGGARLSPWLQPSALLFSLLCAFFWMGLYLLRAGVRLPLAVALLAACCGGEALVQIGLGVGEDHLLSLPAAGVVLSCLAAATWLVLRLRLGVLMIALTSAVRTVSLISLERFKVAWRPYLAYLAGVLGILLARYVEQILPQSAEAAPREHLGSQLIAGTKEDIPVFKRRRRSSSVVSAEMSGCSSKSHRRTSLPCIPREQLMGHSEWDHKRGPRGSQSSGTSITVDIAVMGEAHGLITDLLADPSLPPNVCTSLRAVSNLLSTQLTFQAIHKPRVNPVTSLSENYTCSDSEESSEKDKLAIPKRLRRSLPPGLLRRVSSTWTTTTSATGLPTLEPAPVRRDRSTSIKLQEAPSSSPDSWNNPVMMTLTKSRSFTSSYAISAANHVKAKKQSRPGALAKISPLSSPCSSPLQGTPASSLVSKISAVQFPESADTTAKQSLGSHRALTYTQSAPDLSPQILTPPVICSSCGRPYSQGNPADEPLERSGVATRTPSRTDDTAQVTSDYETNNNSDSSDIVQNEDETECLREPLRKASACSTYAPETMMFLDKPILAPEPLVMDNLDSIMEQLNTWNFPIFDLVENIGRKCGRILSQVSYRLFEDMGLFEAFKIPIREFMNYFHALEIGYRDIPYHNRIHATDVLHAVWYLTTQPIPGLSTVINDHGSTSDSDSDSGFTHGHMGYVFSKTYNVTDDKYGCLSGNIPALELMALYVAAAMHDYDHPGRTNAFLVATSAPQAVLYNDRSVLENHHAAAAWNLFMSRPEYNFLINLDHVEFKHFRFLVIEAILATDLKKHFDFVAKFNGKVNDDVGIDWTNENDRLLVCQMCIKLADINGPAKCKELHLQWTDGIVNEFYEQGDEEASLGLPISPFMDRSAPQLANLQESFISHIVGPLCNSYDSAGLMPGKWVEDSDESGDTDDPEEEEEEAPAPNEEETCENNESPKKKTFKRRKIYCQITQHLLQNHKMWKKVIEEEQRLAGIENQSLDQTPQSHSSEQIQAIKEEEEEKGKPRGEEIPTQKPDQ

The compound `Cn1c(=O)c2c(ncn2CCN2CCN(c3ccc([N+](=O)[O-])cc3)CC2)n(C)c1=O` [KMUP-3] displayed a PDE3 inhibition in series [1] of 55 ± 2.5 %. For the same compound, in the series on respiratory performance, the “Cdyn, Maximum change of baseline (%)” value amounted to 50 ± 5.5 %. The “RL, Maximum change of baseline (%)” value with respiratory performance is on record as −55 ± 4.5 %. Moreover, in the series with respiratory performance, the “Tidal Volume, Maximum change of baseline (%)” value is 21.7 ± 0.5 %. Further, the “effect on Cdyn in TNF-_-induced bronchocontraction (FIG. 2)” value in series [2] (setting [4]) is “increasing Cdyn”. Moreover, the “effect on RL in TNF-_-induced bronchocontraction (FIG. 2)” value in series [2] (setting [4]) was “decreasing RL”. Besides, the “Blood pressure and heart rate” value in series [2] (intratracheal instillation, during recording of lung function) is recorded as “not significantly changed”. Moreover, the cAMP level is 80.2±2.5 pmol/mg protein in series [3] (0.01 _M, 20 min, basal 62.6±6.4); 91.3±3.4 pmol/mg protein in series [3] (0.1 _M, 20 min, basal 62.6±6.4); 97.9±2.5 pmol/mg protein in series [3] (1 _M, 20 min, basal 62.6±6.4); 110.7±4.5 pmol/mg protein in series [3] (10 _M, 20 min, basal 62.6±6.4); 127.5±4.8 pmol/mg protein and 128.72 ± 4.57 pmol/mg protein in series [3] (100 _M, 20 min, basal/vehicle 62.6±6.4). Further, in series [3] (100 _M compound plus SQ 22536 (100 _M) pretreatment), the “cAMP level in presence of SQ 22536” value was determined as 74.51 ± 3.18 pmol/mg protein. Also, the “cAMP accumulation versus vehicle (FIG. 6)” value in series [3] (100 _M, 20 min) is listed as “significant elevations”.
